Measurements published in BindingDB's records for patent US20250313563 (The Broad Institute, 2025).
Several values for one entry are separate records, joined by “and”; a condition that tells them apart may be missing. Identical values can stand only once.

What was measured:
[1] = target: Glycogen synthase kinase-3 beta (Homo sapiens, UniProt P49841); assay: TR-FRET Assay
Summary of the method: (§1)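 Signal is measured as TR-FRET between a terbium anti-phospho-Ser641 antibody and streptavidin-d2, added after an EDTA quench. Compounds are preincubated 30 min in assay buffer.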

[2] = target: Glycogen synthase kinase-3 alpha (Homo sapiens, UniProt P49840); assay: TR-FRET Assay
Chain of Glycogen synthase kinase-3 alpha (P49840 whole entry): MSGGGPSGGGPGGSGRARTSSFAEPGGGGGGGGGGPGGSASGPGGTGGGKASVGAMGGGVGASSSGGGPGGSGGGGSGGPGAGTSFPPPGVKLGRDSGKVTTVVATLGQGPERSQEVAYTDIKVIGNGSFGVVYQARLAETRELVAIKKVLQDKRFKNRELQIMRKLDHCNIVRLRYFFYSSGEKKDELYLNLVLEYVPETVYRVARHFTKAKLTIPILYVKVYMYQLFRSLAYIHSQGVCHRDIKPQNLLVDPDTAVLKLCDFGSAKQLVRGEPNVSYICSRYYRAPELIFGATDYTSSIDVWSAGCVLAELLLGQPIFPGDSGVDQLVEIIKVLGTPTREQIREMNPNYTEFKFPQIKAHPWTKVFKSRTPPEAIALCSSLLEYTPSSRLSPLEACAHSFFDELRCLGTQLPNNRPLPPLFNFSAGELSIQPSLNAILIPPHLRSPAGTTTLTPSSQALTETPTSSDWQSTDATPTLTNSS
Summary of the method: as §1

Chain of Glycogen synthase kinase-3 beta (P49841 whole entry): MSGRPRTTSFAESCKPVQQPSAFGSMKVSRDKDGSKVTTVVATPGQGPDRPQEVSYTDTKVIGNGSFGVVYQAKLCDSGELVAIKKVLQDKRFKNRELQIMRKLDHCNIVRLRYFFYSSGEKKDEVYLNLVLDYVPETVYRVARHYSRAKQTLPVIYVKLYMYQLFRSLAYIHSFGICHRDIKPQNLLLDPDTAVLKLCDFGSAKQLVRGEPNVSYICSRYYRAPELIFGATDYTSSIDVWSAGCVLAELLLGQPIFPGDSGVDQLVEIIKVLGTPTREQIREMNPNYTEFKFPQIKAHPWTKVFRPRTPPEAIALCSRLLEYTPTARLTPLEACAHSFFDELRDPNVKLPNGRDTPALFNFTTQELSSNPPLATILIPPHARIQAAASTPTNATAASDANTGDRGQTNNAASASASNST

Compound | IC50 [1] | IC50 [2]
CC[C@]1(c2cccc(-c3ccnc4ccccc34)c2)C2=CN=NC2NC2=C1C(=O)CC(C)(C)C2 (some centres not stated) [US20250313563, Compound 944034] | > 5 µM | > 5000 nM
CC[C@]1(c2cccc(-c3cc(OC)ncc3F)c2)C2=CN=NC2NC2=C1C(=O)CC(C)(C)C2 (some centres not stated) [US20250313563, Compound 944035] | > 5 µM | 1000 to 5000 nM
CC[C@]1(c2cccc(-c3ccnc4c3CCCC4)c2)C2=CN=NC2NC2=C1C(=O)CC(C)(C)C2 (some centres not stated) [US20250313563, Compound 944036] | > 5 µM | 1000 to 5000 nM
CC[C@]1(c2cccc(-c3cnnc(C)c3)c2)C2=CN=NC2NC2=C1C(=O)NC(C)(C)C2 (some centres not stated) [US20250313563, Compound 944071] | > 5 µM | 1000 to 5000 nM
CC[C@@]1(c2cccc(-c3cnnc(C)c3)c2)C2=CN=NC2NC2=C1C(=O)NC(C)(C)C2 (some centres not stated) [US20250313563, Compound 944074] | 0.1 to 1 µM and > 5 µM | < 100 nM and 100 to 1000 nM
CC[C@]1(c2cccc(C(F)(F)F)c2)C2=CN=NC2NC2=C1C(=O)N[C@@H](c1ccccc1)C2 (some centres not stated) [US20250313563, Compound 945362] | > 5 µM | 1000 to 5000 nM
CC[C@@]1(c2cccc(C(F)(F)F)c2)C2=CN=NC2NC2=C1C(=O)N[C@@H](c1ccccc1)C2 (some centres not stated) [US20250313563, Compound 945364] | > 5 µM | > 5000 nM
CC[C@@]1(c2cccc(C(F)(F)F)c2)C2=C(N=NC2)NC2=C1C(=O)N(C)C2 [US20250313563, Compound 945368] | > 5 µM | > 5000 nM
CC[C@]1(c2cccc(C(F)(F)F)c2)C2=C(N=NC2)NC2=C1C(=O)N(c1ccccc1)C2 [US20250313563, Compound 945376] | > 5 µM | > 5000 nM
CC[C@@]1(c2cccc(C(F)(F)F)c2)C2=C(N=NC2)NC2=C1C(=O)N[C@@H]2C [US20250313563, Compound 945380] | > 5 µM | > 5000 nM
CC[C@@]1(c2cccc(C(F)(F)F)c2)C2=C(N=NC2)NC2=C1C(=O)N[C@H]2C [US20250313563, Compound 945381] | > 5 µM | > 5000 nM
CC[C@@]1(c2cccc(C(F)(F)F)c2)C2=CN=NC2NC2=C1C(=O)NC[C@H]2C (some centres not stated) [US20250313563, Compound 945385] | > 5 µM | > 5000 nM
CC1(C)CC(=O)C2=C(C1)NC1=C(CN=N1)C21CCC(C(=O)N2CCCC2)CC1 (configuration not stated) [US20250313563, Compound 945394] | 1 to 5 µM | 100 to 1000 nM
CN(C)C(=O)C1CCC2(CC1)C1=C(N=NC1)NC1=C2C(=O)CC(C)(C)C1 (configuration not stated) [US20250313563, Compound 945395] | 1 to 5 µM | 100 to 1000 nM

Further lines, results first:

IC50 [1] | IC50 [2] | Compound
1 to 5 µM | 100 to 1000 nM | CC[C@@]1(c2cccc(-c3cc(OC)ncc3F)c2)C2=CN=NC2NC2=C1C(=O)CC(C)(C)C2 (some centres not stated) [US20250313563, Compound 944032]
1 to 5 µM | 100 to 1000 nM | CC[C@@]1(c2cccc(N(C)c3nccc(C)n3)c2)C2=CN=NC2NC2=C1C(=O)CC(C)(C)C2 (some centres not stated) [US20250313563, Compound 945329]
0.1 to 1 µM | < 100 nM | CC[C@]1(c2cccc(C(F)(F)F)c2)C2=CN=NC2NC2=C1C(=O)N[C@H](c1ccccc1)C2 (some centres not stated) [US20250313563, Compound 945361]
1 to 5 µM | 100 to 1000 nM | CC[C@]1(c2cccc(C(F)(F)F)c2)C2=C(N=NC2)NC2=C1C(=O)N(C)C2 [US20250313563, Compound 945367]
1 to 5 µM | 100 to 1000 nM | CC[C@@]1(c2cccc(C(F)(F)F)c2)C2=CN=NC2NC2=C1C(=O)N(c1ccccc1)C2 (some centres not stated) [US20250313563, Compound 945377]
1 to 5 µM | 100 to 1000 nM | CC[C@]1(c2cccc(C(F)(F)F)c2)C2=C(N=NC2)NC2=C1C(=O)N[C@H]2C [US20250313563, Compound 945379]
0.1 to 1 µM | < 100 nM | CC[C@]1(c2cccc(C(F)(F)F)c2)C2=CN=NC2NC2=C1C(=O)NC[C@H]2C (some centres not stated) [US20250313563, Compound 945383]
